Key:
Assay in all cases: relative viability (nuclei count vs DMSO), 5 days (fraction); higher = more cells survive
NCI-H1648 = test system: NCI-H1648
Outline: (§1)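 Relative viability equals treated-well nuclei counts divided by vehicle-well nuclei counts. Counts came from 4× images of lung cancer cell lines grown in 1536-well plates for 5 days after pin-tool dosing on the day after seeding. Dosing used one drug alone or a fixed anchor-drug dose plus five library-drug doses (not always all listed) in √10 steps, and values are medians of duplicate plates.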

SW 900 = test system: SW 900
Outline: as §1

NCI-H2342 = test system: NCI-H2342
Outline: as §1

NCI-H522 = test system: NCI-H522
Outline: as §1

NCI-H1703 = test system: NCI-H1703
Outline: as §1

EBC-1 = test system: EBC-1
Outline: as §1

A549 = test system: A549
Outline: as §1

IA-LM = test system: IA-LM
Outline: as §1

Calu-6 = test system: Calu-6
Outline: as §1

NCI-H1563 = test system: NCI-H1563
Outline: as §1

NCI-H1299 = test system: NCI-H1299
Outline: as §1

Row | SMILES | relative viability (NCI-H1703; first compound 0.08 µM) | relative viability (NCI-H1703; first compound 0.253 µM) | relative viability (NCI-H1703; first compound 0.8 µM) | relative viability (NCI-H1703; first compound 2.53 µM) | relative viability (EBC-1; first compound 0.08 µM) | relative viability (EBC-1; first compound 0.253 µM) | relative viability (EBC-1; first compound 0.8 µM) | relative viability (EBC-1; first compound 2.53 µM) | relative viability (A549; first compound 0.08 µM) | relative viability (A549; first compound 0.253 µM) | relative viability (A549; first compound 0.8 µM) | relative viability (A549; first compound 2.53 µM) | relative viability (IA-LM; first compound 0.08 µM) | relative viability (IA-LM; first compound 0.253 µM) | relative viability (IA-LM; first compound 0.8 µM) | relative viability (IA-LM; first compound 2.53 µM) | relative viability (Calu-6; first compound 0.08 µM) | relative viability (Calu-6; first compound 0.253 µM) | relative viability (Calu-6; first compound 0.8 µM) | relative viability (Calu-6; first compound 2.53 µM) | also measured
1 | Cc1cnc(-c2cnc(NCCNc3ccc(C#N)cn3)nc2-c2ccc(Cl)cc2Cl)[nH]1 + CC(=O)c1c(C)c2cnc(Nc3ccc(N4CCNCC4)cn3)nc2n(C2CCCC2)c1=O [Palbociclib] (partner 0.5 µM) |  |  |  |  |  |  |  |  |  |  |  |  |  |  |  |  |  |  |  |  | relative viability (NCI-H1648; first compound 0.08 µM): 0.267; relative viability (NCI-H1648; first compound 0.253 µM): 0.243; relative viability (NCI-H1648; first compound 0.8 µM): 0.265; relative viability (NCI-H1648; first compound 2.53 µM): 0.265; relative viability (SW 900; first compound 0.08 µM): 0.565; relative viability (SW 900; first compound 0.253 µM): 0.513; relative viability (SW 900; first compound 0.8 µM): 0.528; relative viability (SW 900; first compound 2.53 µM): 0.515; relative viability (NCI-H2342; first compound 0.08 µM): 0.522; relative viability (NCI-H2342; first compound 0.253 µM): 0.516; relative viability (NCI-H2342; first compound 0.8 µM): 0.557; relative viability (NCI-H2342; first compound 2.53 µM): 0.463; relative viability (NCI-H522; first compound 0.08 µM): 1.15; relative viability (NCI-H522; first compound 0.253 µM): 0.927; relative viability (NCI-H522; first compound 0.8 µM): 0.974; relative viability (NCI-H522; first compound 2.53 µM): 0.862
2 | O=c1[nH]c2ccccc2n1C1CCN(CCCC(c2ccc(F)cc2)c2ccc(F)cc2)CC1 [Pimozide] + C[C@]1(O)C[C@@H](c2nc(-c3ccc4ccc(-c5ccccc5)nc4c3)c3c(N)nccn32)C1 [Linsitinib] (partner 1 µM) | 0.637 | 0.544 | 0.637 | 0.514 | 0.867 | 0.844 | 0.766 | 0.821 | 0.426 | 0.497 | 0.627 | 0.548 | 0.652 | 0.566 | 0.356 | 0.456 | 0.986 | 0.94 | 0.843 | 0.881 | relative viability (NCI-H1703; first compound 8 µM): 0.553; relative viability (EBC-1; first compound 8 µM): 0.892; relative viability (A549; first compound 8 µM): 0.619; relative viability (IA-LM; first compound 8 µM): 0.759; relative viability (Calu-6; first compound 8 µM): 0.913; relative viability (NCI-H1563; first compound 0.08 µM): 1.12; relative viability (NCI-H1563; first compound 0.253 µM): 1.19; relative viability (NCI-H1563; first compound 0.8 µM): 1.35; relative viability (NCI-H1563; first compound 2.53 µM): 1.16; relative viability (NCI-H1563; first compound 8 µM): 0.861; relative viability (NCI-H1299; first compound 0.08 µM): 0.949; relative viability (NCI-H1299; first compound 0.253 µM): 0.945; relative viability (NCI-H1299; first compound 0.8 µM): 0.923; relative viability (NCI-H1299; first compound 2.53 µM): 0.899; relative viability (NCI-H1299; first compound 8 µM): 0.949
3 | O=c1[nH]c2ccccc2n1C1CCN(CCCC(c2ccc(F)cc2)c2ccc(F)cc2)CC1 [Pimozide] + CS(=O)(=O)CCNCc1ccc(-c2ccc3ncnc(Nc4ccc(OCc5cccc(F)c5)c(Cl)c4)c3c2)o1 [Lapatinib] (partner 2 µM) | 1.02 | 0.944 | 0.763 | 0.958 | 0.208 | 0.213 | 0.192 | 0.223 | 0.912 | 1.01 | 0.976 | 0.882 | 0.888 | 0.987 | 0.64 | 0.761 | 1.08 | 1.07 | 1.02 | 1.02 | relative viability (NCI-H1703; first compound 8 µM): 0.865; relative viability (EBC-1; first compound 8 µM): 0.162; relative viability (A549; first compound 8 µM): 0.802; relative viability (IA-LM; first compound 8 µM): 0.893; relative viability (Calu-6; first compound 8 µM): 0.933; relative viability (NCI-H1563; first compound 0.08 µM): 0.955; relative viability (NCI-H1563; first compound 0.253 µM): 0.829; relative viability (NCI-H1563; first compound 0.8 µM): 0.933; relative viability (NCI-H1563; first compound 2.53 µM): 0.756; relative viability (NCI-H1563; first compound 8 µM): 0.533; relative viability (NCI-H1299; first compound 0.08 µM): 0.977; relative viability (NCI-H1299; first compound 0.253 µM): 0.972; relative viability (NCI-H1299; first compound 0.8 µM): 0.91; relative viability (NCI-H1299; first compound 2.53 µM): 0.937; relative viability (NCI-H1299; first compound 8 µM): 0.875
4 | Cc1cnc(-c2cnc(NCCNc3ccc(C#N)cn3)nc2-c2ccc(Cl)cc2Cl)[nH]1 + C[C@@H](Oc1cc(-c2cnn(C3CCNCC3)c2)cnc1N)c1c(Cl)ccc(F)c1Cl [Crizotinib] (partner 1 µM) | 0.93 | 0.622 | 0.861 | 0.73 | 0.191 | 0.217 | 0.191 | 0.19 | 0.784 | 0.692 | 0.964 | 0.803 | 0.835 | 0.817 | 0.903 | 0.803 | 0.862 | 0.752 | 0.81 | 0.513 | relative viability (NCI-H1563; first compound 0.08 µM): 0.92; relative viability (NCI-H1563; first compound 0.253 µM): 0.891; relative viability (NCI-H1563; first compound 0.8 µM): 0.767; relative viability (NCI-H1563; first compound 2.53 µM): 0.903; relative viability (NCI-H1299; first compound 0.08 µM): 0.963; relative viability (NCI-H1299; first compound 0.253 µM): 0.952; relative viability (NCI-H1299; first compound 0.8 µM): 0.989; relative viability (NCI-H1299; first compound 2.53 µM): 0.845
